# From article PMC6017357, “In Vitro Inhibitory Effects of Synthetic Cannabinoid EAM-2201 on Cytochrome P450 and UDP-Glucuronosyltransferase Enzyme Activities in Human Liver Microsomes” (Molecules : A Journal of Synthetic Chemistry and Natural …, 2018)
# Biological target: T1, CYP1A2 (Homo sapiens, UniProt P05177)
# T1 construct: from tissue; host or cells: ultrapooled human liver microsomes
# T1 sequence (P05177 1-516): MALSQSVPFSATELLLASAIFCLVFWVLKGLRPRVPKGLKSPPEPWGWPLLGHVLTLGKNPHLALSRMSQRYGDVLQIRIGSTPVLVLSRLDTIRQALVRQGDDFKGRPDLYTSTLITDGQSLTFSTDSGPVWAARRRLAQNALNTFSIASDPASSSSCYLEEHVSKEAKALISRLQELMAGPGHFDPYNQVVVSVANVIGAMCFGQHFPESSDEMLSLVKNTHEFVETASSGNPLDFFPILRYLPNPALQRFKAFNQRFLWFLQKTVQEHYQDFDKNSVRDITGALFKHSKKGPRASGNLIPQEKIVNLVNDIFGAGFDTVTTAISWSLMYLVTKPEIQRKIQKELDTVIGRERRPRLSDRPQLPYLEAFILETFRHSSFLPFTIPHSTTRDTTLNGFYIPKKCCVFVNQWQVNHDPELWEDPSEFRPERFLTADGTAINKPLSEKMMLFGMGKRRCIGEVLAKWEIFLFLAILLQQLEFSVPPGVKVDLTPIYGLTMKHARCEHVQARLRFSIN
# Experiment: CYP1A2-mediated phenacetin O-deethylation in pooled human liver microsomes
# Type: in vitro ADME
# Details: up to 50 µM, without 30-min preincubation
# Protocol: The inhibitory potential (IC50 values) of EAM-2201 on CYP1A2, CYP2A6, CYP2C8, CYP2C9, CYP2C19, CYP2D6 and CYP3A4 were evaluated using ultrapooled human liver microsomes and a cocktail of seven CYP substrates followed by LC-tandem mass spectrometry (LC-MS/MS) as previously described. […] Aliquots (5 µL) of the diluted supernatants were analyzed using LC-MS/MS. […]
# The metabolites formed from CYP substrates were simultaneously quantified using our previously described LC-MS/MS method. […] Quantification was performed by selected reaction monitoring (SRM) of the [M + H]^+ ion and the related product ion for each metabolite: acetaminophen, 152.1 > 110.3; N-desethylamodiaquine, 328.1 > 283.0; 7-hydroxycoumarin, 163.0 > 107.2; 4-hydroxybupropion, 256.1 > 238.0; 4′-hydroxydiclofenac, 312.0 > 231.1; 4′-hydroxy-mephenytoin, 235.1 > 150.1; 1′-hydroxybufuralol, 278.1 > 186.1; 1′-hydroxymidazolam, 341.9 > 324.0; ^13C2,^15N-acetaminophen, 155.1 > 111.2; and d9-1′-hydroxybufuralol, 287.2 > 187.0. […]
compound,measurement,value
"CCc1ccc(C(=O)c2cn(CCCCCF)c3ccccc23)c2ccccc12 [EAM-2201, (4-ethyl-1-naphthalenyl)[1-(5-fluoropentyl)-1H-indol-3-yl]-methanone]",inhibition of CYP1A2-mediated phenacetin O-deethylation,negligibly inhibited
